The values that follow come from patent US20250228239A1, “MOLECULES HAVING PESTICIDAL UTILITY, AND INTERMEDIATES, COMPOSITIONS, AND PROCESSES, RELATED THERETO” (priority 2024, published 2025).

Read-outs that look alike come from different tables or passages of the source.

Test [1] relates to Cabbage Looper (Trichoplusia ni, TRIPNI). The experiment in a line: Bioassays on Cabbage Looper (CL), 128-well diet tray assay. Format: in vivo. To be noted: Trichoplusia ni. The gist of the method: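 One to five second-instar larvae per well on artificial diet surface-treated with 50 μg/cm^2 test molecule (applied in 90:10 acetone-water, dried). Held 5–7 days at 25° C, 14:10 light-dark; percent mortality recorded per well and averaged over eight wells.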

Test [2] relates to Beet Armyworm (Spodoptera exigua, LAPHEG). The experiment in a line: Bioassays on Beet Armyworm (BAW), 128-well diet tray assay. Format: in vivo. Conditions: Spodoptera exigua. The gist of the method:
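Larvae at second instar are exposed on dried, compound-treated diet (50 μg/cm^2, delivered in 90:10 acetone-water) in eight replicate wells. After five to seven days at 25° C., 14:10 light-dark, percent mortality in each well is scored and the eight wells averaged.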

The mark [3] stands for this setting: Cabbage Looper, rating class, read-out: CL.
Where [4] appears, read: Beet Armyworm, rating class, read-out: BAW.
Setting [5] is: Cabbage Looper, Table ABC / ABC-DP rating, read-out: CL rating.
[6] abbreviates: Beet Armyworm, Table ABC / ABC-DP rating, read-out: BAW rating.
Where [7] appears, read: Table ABC: Biological Results, species CL, read-out: CL.
[8] abbreviates: Table ABC: Biological Results, species BAW, read-out: BAW.

For `O=C(Nc1cc(NC(=O)C(F)(F)F)c(F)cc1F)c1cc(NC(=O)[C@H]2[C@H](c3cc(Cl)c(Cl)c(Cl)c3)C2(Cl)Cl)cc(F)c1Cl` [F1405, 2-Chloro-5-((1R,3R)-2,2-dichloro-3-(3,4,5-trichlorophenyl)cyclopropane-1-carboxamido)-N-(2,4-difluoro-5-(2,2,2-trifluoroacetamido)phenyl)-3-fluorobenzamide], the pest or weed control at 50 µg/cm2 in test [1] (setting [3]) and in test [2] (setting [4]) was 50 to 100% each time.
For `O=C(COCC(F)(F)F)Nc1c(F)ccc(NC(=O)c2cc(NC(=O)[C@H]3[C@H](c4ccc(F)c(Cl)c4)C3(Cl)Cl)ccc2Cl)c1F` [F1867, 2-Chloro-5-((1R,3R)-2,2-dichloro-3-(3-chloro-4-fluorophenyl)cyclopropane-1-carboxamido)-N-(2,4-difluoro-3-(2-(2,2,2-trifluoroethoxy)acetamido)phenyl) benzamide], the pest or weed control at 50 µg/cm2 in test [1] (setting [5]) and in test [2] (setting [6]) was 50 to 100% throughout.
`COCC(=O)NNC(=O)c1cc(NC(=O)[C@H]2[C@H](c3cc(Cl)cc(Cl)c3)C2(Cl)Cl)ccc1Cl` (relative stereo) [F2529, trans-2,2-Dichloro-N-(4-chloro-3-(2-(2-methoxyacetyl)hydrazine-1-carbonyl)phenyl)-3-(3,5-dichlorophenyl)cyclopropane-1-carboxamide]: the pest or weed control at 50 µg/cm2 in test [1] (setting [5]) and in test [2] (setting [6]) was 50 to 100% in each case.
On to `CCC(=O)Nc1c(F)ccc(NC(=O)c2cc(NC(=O)[C@H]3[C@H](c4ccc(Cl)c(Cl)c4)C3(Cl)Cl)ccc2Cl)c1F` [F1472, 2-Chloro-5-((1R,3R)-2,2-dichloro-3-(3,4-dichlorophenyl)cyclopropane-1-carboxamido)-N-(2,4-difluoro-3-propionamidophenyl)benzamide], for which the pest or weed control at 50 µg/cm2 in test [1] (setting [3]) and in test [2] (setting [4]) was 50 to 100% throughout.
In the case of `Cc1cc(NCC(C)c2ccccc2)ccc1NC(=O)c1cc(NC(=O)[C@H]2[C@H](c3cc(Cl)cc(Cl)c3)C2(Cl)Cl)ccc1Cl` (relative stereo) [F1178, trans-2-Chloro-5-(2,2-dichloro-3-(3,5-dichlorophenyl)cyclopropane-1-carboxamido)-N-(2-methyl-4-((2-phenylpropyl)amino)phenyl)benzamide], the pest or weed control at 50 µg/cm2 in test [1] (setting [7]) and in test [2] (setting [8]) was 50 to 100% throughout.
`Nc1cc(F)c(NC(=O)c2cc(NC(=O)[C@H]3[C@H](c4cc(Cl)c(Cl)c(Cl)c4)C3(Cl)Cl)ccc2Cl)c(F)c1` [F1029, N-(4-Amino-2,6-difluorophenyl)-2-chloro-5-((1R,3R)-2,2-dichloro-3-(3,4,5-trichlorophenyl)cyclopropane-1-carboxamido)benzamide]: the pest or weed control at 50 µg/cm2 in test [1] (setting [7]) and in test [2] (setting [8]) was 50 to 100% each time.
With `Nc1c(F)ccc(NC(=O)c2c(Cl)ccc(NC(=O)[C@H]3[C@H](c4ccc(F)c(Cl)c4)C3(Cl)Cl)c2Cl)c1F` (relative stereo) [F1110, trans-N-(3-Amino-2,4-difluorophenyl)-2,6-dichloro-3-(2,2-dichloro-3-(3-chloro-4-fluorophenyl)cyclopropane-1-carboxamido)benzamide], the pest or weed control at 50 µg/cm2 in test [1] (setting [7]) and in test [2] (setting [8]) was 50 to 100% each time.
`COc1c(Cl)cc(NC(=O)[C@H]2[C@H](c3ccc(F)c(Cl)c3)C2(Cl)Cl)cc1C(=O)Nc1ccc(F)cc1F` (relative stereo) [F1236, trans-3-Chloro-5-(2,2-dichloro-3-(3-chloro-4-fluorophenyl)cyclopropane-1-carboxamido)-N-(2,4-difluorophenyl)-2-methoxybenzamide]: the pest or weed control at 50 µg/cm2 in test [1] (setting [7]) and in test [2] (setting [8]) was 50 to 100% throughout.
Take `O=C(Nc1c(F)ccc(NC(=O)C(F)(F)F)c1F)c1cc(NC(=O)[C@H]2[C@H](c3ccc(F)c(C(F)(F)F)c3)C2(Cl)Cl)cc(F)c1F` [F1574, 5-((1R,3R)-2,2-Dichloro-3-(4-fluoro-3-(trifluoromethyl)phenyl)cyclopropane-1-carboxamido)-N-(2,6-difluoro-3-(2,2,2-trifluoroacetamido)phenyl)-2,3-difluorobenzamide]: the pest or weed control at 50 µg/cm2 in test [1] (setting [3]) and in test [2] (setting [4]) was 50 to 100% each time.
With `O=C(Nc1c(F)ccc(NC(=O)c2cc(NC(=O)[C@H]3[C@H](c4ccc(F)c(C(F)(F)F)c4)C3(Cl)Cl)ccc2Cl)c1F)c1ccc(F)cc1` [F1204, 2-chloro-5-((1R,3R)-2,2-dichloro-3-(4-fluoro-3-(trifluoromethyl)phenyl)cyclopropane-1-carboxamido)-N-(2,4-difluoro-3-(4-fluorobenzamido)phenyl)benzamide], the pest or weed control at 50 µg/cm2 in test [1] (setting [7]) and in test [2] (setting [8]) was 50 to 100% each time.
For `CCNC(=O)c1cc(NC(=O)[C@H]2[C@H](c3ccc(F)c(Cl)c3)C2(Cl)Cl)cc(F)c1F` (relative stereo) [F2051, trans-5-(2,2-Dichloro-3-(3-chloro-4-fluorophenyl)cyclopropane-1-carboxamido)-N-ethyl-2,3-difluorobenzamide], the pest or weed control at 50 µg/cm2 in test [1] (setting [5]) and in test [2] (setting [6]) was 50 to 100% throughout.
In the case of `O=C(NNC(=O)C(C(F)(F)F)C(F)(F)F)c1cc(NC(=O)[C@H]2[C@H](c3cc(Cl)cc(Cl)c3)C2(Cl)Cl)ccc1Cl` (relative stereo) [F2532, trans-2,2-Dichloro-N-(4-chloro-3-(2-(3,3,3-trifluoro-2-(trifluoromethyl)propanoyl)hydrazine-1-carbonyl)phenyl)-3-(3,5-dichlorophenyl)cyclopropane-1-carboxamide], the pest or weed control at 50 µg/cm2 in test [1] (setting [5]) and in test [2] (setting [6]) was 50 to 100% each time.
Take `O=C(Nc1c(F)ccc(NC(=O)C(F)F)c1F)c1cc(NC(=O)[C@H]2[C@H](c3ccc(F)c(C(F)(F)F)c3)C2(Cl)Cl)cc(F)c1F` [F1573, 5-((1R,3R)-2,2-Dichloro-3-(4-fluoro-3-(trifluoromethyl)phenyl)cyclopropane-1-carboxamido)-N-(3-(2,2-difluoroacetamido)-2,6-difluorophenyl)-2,3-difluorobenzamide]: the pest or weed control at 50 µg/cm2 in test [1] (setting [3]) and in test [2] (setting [4]) was 50 to 100% in each case.
Consider `O=C(NCC(F)(F)F)c1c(Cl)ccc(NC(=O)[C@H]2[C@H](c3ccc(F)c(Cl)c3)C2(Cl)Cl)c1F` [F2072, 6-Chloro-3-((1R,3R)-2,2-dichloro-3-(3-chloro-4-fluorophenyl)cyclopropane-1-carboxamido)-2-fluoro-N-(2,2,2-trifluoroethyl)benzamide], for which the pest or weed control at 50 µg/cm2 in test [1] (setting [5]) and in test [2] (setting [6]) was 50 to 100% each time.
In the case of `O=C(Nc1cc(F)c(NC(=O)C(F)(F)F)c(F)c1)c1cc(NC(=O)[C@H]2[C@H](c3ccc(Cl)c(Cl)c3)C2(Cl)Cl)ccc1Cl` (relative stereo) [F1120, trans-2-Chloro-5-(2,2-dichloro-3-(3,4-dichlorophenyl)cyclopropane-1-carboxamido)-N-(3,5-difluoro-4-(2,2,2-trifluoroacetamido)phenyl)benzamide], the pest or weed control at 50 µg/cm2 in test [1] (setting [7]) and in test [2] (setting [8]) was 50 to 100% in each case.
For `Cc1cc(NC(=O)[C@H]2[C@H](c3cc(Cl)c(Cl)c(Cl)c3)C2(Cl)Cl)cc(C(=O)Nc2c(F)ccc(NC(=O)C(F)(F)F)c2F)c1Cl` [F1432, 2-Chloro-5-((1R,3R)-2,2-dichloro-3-(3,4,5-trichlorophenyl)cyclopropane-1-carboxamido)-N-(2,6-difluoro-3-(2,2,2-trifluoroacetamido)phenyl)-3-methylbenzamide], the pest or weed control at 50 µg/cm2 in test [1] (setting [3]) and in test [2] (setting [4]) was 50 to 100% throughout.
As for `CN(NC(=O)c1cc(NC(=O)[C@H]2[C@H](c3cc(Cl)cc(Cl)c3)C2(Cl)Cl)ccc1Cl)C(=O)c1ccccc1` (relative stereo) [F2527, trans-N-(3-(2-Benzoyl-2-methylhydrazine-1-carbonyl)-4-chlorophenyl)-2,2-dichloro-3-(3,5-dichlorophenyl)cyclopropane-1-carboxamide], the pest or weed control at 50 µg/cm2 in test [1] (setting [5]) and in test [2] (setting [6]) was 50 to 100% in each case.
As to `Nc1c(F)ccc(NC(=O)c2c(Cl)ccc(NC(=O)[C@H]3[C@H](c4ccc(F)c(Cl)c4)C3(Cl)Cl)c2F)c1F` [F1508, N-(3-Amino-2,4-difluorophenyl)-6-chloro-3-((1R,3R)-2,2-dichloro-3-(3-chloro-4-fluorophenyl)cyclopropane-1-carboxamido)-2-fluorobenzamide], the pest or weed control at 50 µg/cm2 in test [1] (setting [3]) and in test [2] (setting [4]) was 50 to 100% throughout.
For the molecule `CCO[C@@H](C)C(=O)Nc1c(F)ccc(NC(=O)c2cc(NC(=O)[C@H]3[C@H](c4ccc(Cl)c(Cl)c4)C3(Cl)Cl)ccc2Cl)c1F` [F1733, 2-Chloro-5-((1R,3R)-2,2-dichloro-3-(3,4-dichlorophenyl)cyclopropane-1-carboxamido)-N-(3-((S)-2-ethoxypropanamido)-2,4-difluorophenyl)benzamide], the pest or weed control at 50 µg/cm2 in test [1] (setting [3]) and in test [2] (setting [4]) was 50 to 100% each time.
Consider `Cc1cc(NC(=O)[C@H]2[C@H](c3cc(Cl)c(Cl)c(Cl)c3)C2(Cl)Cl)cc(C(=O)Nc2cc(N)c(F)cc2F)c1Cl` [F1477, N-(5-Amino-2,4-difluorophenyl)-2-chloro-5-((1R,3R)-2,2-dichloro-3-(3,4,5-trichlorophenyl)cyclopropane-1-carboxamido)-3-methylbenzamide], for which the pest or weed control at 50 µg/cm2 in test [1] (setting [3]) and in test [2] (setting [4]) was 50 to 100% in each case.
